Reference: publication PMC7226860 (ACS Omega, 2020)
≈ marks a conversion by molar mass, not a printed value.

Experiments:
[1] = tested on: E. coli (ATCC: 3008); assay: MIC, twofold serial dilution; format: cell-based; conditions: Escherichia coli, 24 h
[2] = tested on: P. aeruginosa (ATCC: 27853); assay: Agar well diffusion, inhibition zone; format: cell-based, Pseudomonas aeruginosa; conditions: for zone of inhibition at 15000 µg/mL: Pseudomonas aeruginosa, read-out: diameter of the inhibition zone; for diameter of the inhibition zone: P. aeruginosa (ATCC: 27853), Gram (−ve), agar well diffusion, 15 mg/mL, mean ± SD
[3] = tested on: K. pneumonia (ATCC: 4415); assay: Agar well diffusion, inhibition zone; format: cell-based, Klebsiella pneumonia; conditions: Klebsiella pneumoniae, read-out: diameter of the inhibition zone, K. pneumonia (ATCC: 4415), Gram (−ve), 15 mg/mL, mean ± SD
[4] = tested on: E. coli (ATCC: 3008); assay: Agar well diffusion, inhibition zone; format: cell-based, Escherichia coli; conditions: Escherichia coli, read-out: diameter of the inhibition zone
[5] = tested on: K. pneumonia (ATCC: 4415); assay: MIC, twofold serial dilution; format: cell-based; conditions: Klebsiella pneumoniae, 24 h, read after 24 h
[6] = tested on: P. aeruginosa (ATCC: 27853); assay: MIC, twofold serial dilution; format: cell-based; conditions: Pseudomonas aeruginosa, 24 h
[7] = tested on: S. aureus (ATCC: 6538); assay: MIC, twofold serial dilution; format: cell-based; conditions: Staphylococcus aureus, 24 h
[8] = tested on: S. mutans (ATCC: 25175); assay: Agar well diffusion, inhibition zone; format: cell-based, Streptococcus mutans; conditions: Streptococcus mutans, read-out: diameter of the inhibition zone
[9] = tested on: S. mutans (ATCC: 25175); assay: MIC, twofold serial dilution; format: cell-based; conditions: Streptococcus mutans, 24 h
[10] = tested on: S. aureus (ATCC: 6538); assay: Agar well diffusion, inhibition zone; format: cell-based, Staphylococcus aureus; conditions: for zone of inhibition at 15000 µg/mL: Staphylococcus aureus, read-out: diameter of the inhibition zone
[11] = tested on: C. albicans (ATCC: 10231); assay: Agar well diffusion, inhibition zone; format: cell-based, Candida albicans; conditions: for diameter of the inhibition zone: C. albicans (ATCC: 10231), fungi, 15 mg/mL, mean ± SD; for zone of inhibition at 15000 µg/mL: Candida albicans, read-out: diameter of the inhibition zone, C. albicans (ATCC: 10231), fungi, 15 mg/mL, mean ± SD
[12] = tested on: HFB4 human dermal fibroblast cell line; assay: MTT cytotoxicity assay; format: cell-based; conditions: 48 h
[13] = tested on: C. albicans (ATCC: 10231); assay: MIC, twofold serial dilution; format: cell-based, Candida albicans; conditions: Candida albicans, 24 h
[14] = biological target: T1, human DHFR (Homo sapiens, UniProt P00374); assay: DHFR inhibitor screening kit; format: biochemical; conditions: for inhibition at 0.01 µg/mL / inhibition at 0.1 µg/mL / inhibition at 1 µg/mL / inhibition at 10 µg/mL: read-out: Inhibition of DHFR enzyme
T1 sequence (P00374 1-187): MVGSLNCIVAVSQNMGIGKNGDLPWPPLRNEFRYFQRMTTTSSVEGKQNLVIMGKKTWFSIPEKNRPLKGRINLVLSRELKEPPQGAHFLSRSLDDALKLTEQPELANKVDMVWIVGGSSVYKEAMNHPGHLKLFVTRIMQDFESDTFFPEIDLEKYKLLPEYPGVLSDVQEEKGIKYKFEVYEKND

| SMILES | MIC [1] [µg/mL] | zone of inhibition at 15000 µg/mL [2] [mm] | zone of inhibition at 15000 µg/mL [3] [mm] | zone of inhibition at 15000 µg/mL [4] [mm] | MIC [5] [µg/mL] | MIC [6] [µg/mL] | MIC [7] [µg/mL] | zone of inhibition at 15000 µg/mL [8] [mm] | MIC [9] [µg/mL] | zone of inhibition at 15000 µg/mL [10] [mm] | diameter of the inhibition zone [11] | IC50 [12] [µg/mL] | diameter of the inhibition zone [2] | MIC [13] [µg/mL] | IC50 [14] [nM] | inhibition at 0.01 µg/mL [14] [%] | inhibition at 0.1 µg/mL [14] [%] | inhibition at 1 µg/mL [14] [%] | inhibition at 10 µg/mL [14] [%] | zone of inhibition at 15000 µg/mL [11] [mm] | further results |
| --- | --- | --- | --- | --- | --- | --- | --- | --- | --- | --- | --- | --- | --- | --- | --- | --- | --- | --- | --- | --- | --- |
| CNC(C)C1CCC(N)C(OC2C(N)CC(N)C(OC3OCC(C)(O)C(NC)C3O)C2O)O1 (stereo not shown) [Gentamicin, reference compound] | 31.2 (≈ 65.4 µM) | 35 ± 0.1 | 32 ± 0.1 | 25 ± 0.1 | 62.5 (≈ 131 µM) | 125 (≈ 262 µM) |  |  |  |  |  |  |  |  |  |  |  |  |  |  |  |
| Nc1ccc(S(=O)(=O)Nc2ncccn2)cc1 [SD, sulfadiazine, reference compound] | 250 (≈ 999 µM) | 24 ± 1.4 | 20.4 ± 0.9 | 19.8 ± 0.4 | 250 (≈ 999 µM) | 250 (≈ 999 µM) | 500 (≈ 2000 µM) | 16.3 ± 1.1 | 125 (≈ 499 µM) | 31.2 ± 2.1 | no activity | 243 ± 46.1 (≈ 969 µM) |  |  |  |  |  |  |  |  |  |
| CSc1c(C#N)c(N)n(NS(=O)(=O)c2ccccc2)c(=O)c1-c1nc2ccccc2s1 [compound 5a, N-(6-Amino-3-(benzo[d]thiazol-2-yl)-5-cyano-4-(methylthio)-2-oxopyridin-1(2H)-yl)benzenesulfonamide] | 62.5 (≈ 133 µM) |  | 20.6 ± 1 | 26 ± 0.5 | 1000 (≈ 2130 µM) |  |  | 17.6 ± 1.5 | 1000 (≈ 2130 µM) |  | 21.0 ± 1.0 mm | 167 ± 21.8 (≈ 356 µM) | − | 62.5 (≈ 133 µM) | 554 | 30 | 41.8 | 57.3 | 75.9 | 21 to 28 | diameter of the inhibition zone ([10]; S. aureus (ATCC: 6538), Gram (+ve), agar well diffusion, 15 mg/mL, mean ± SD): − |
| CSc1c(C#N)c(N)n(NS(=O)(=O)c2ccc(C)cc2)c(=O)c1-c1nc2ccccc2s1 [compound 5b, N-(6-Amino-3-(benzo[d]thiazol-2-yl)-5-cyano-4-(methylthio)-2-oxopyridin-1(2H)-yl)-4-methylbenzenesulfonamide] | 125 (≈ 258 µM) | 23.3 ± 0.5 | 25.6 ± 1.1 | 21.3 ± 3 | 1000 (≈ 2070 µM) | 1000 (≈ 2070 µM) | 250 (≈ 517 µM) | 18.6 ± 1 | 1000 (≈ 2070 µM) | 30.3 ± 0.5 | − | 146 ± 27 (≈ 301 µM) |  |  | 620 | 19.8 | 37.4 | 65 | 79.4 |  |  |
| Nc1n[nH]c2c(-c3nc4ccccc4s3)c(=O)n(NS(=O)(=O)c3ccccc3)c(N)c12 [compound 11a, N-(3,4-Diamino-7-(benzo[d]thiazol-2-yl)-6-oxo-1H-pyrazolo[4,3-c]pyridin-5(6H)-yl)benzenesulfonamide] | 31.2 (≈ 68.9 µM) |  | 15.2 ± 0.5 | 26 ± 0.5 | 125 (≈ 276 µM) |  | 31.2 (≈ 68.9 µM) | 22.3 ± 0.5 | 1000 (≈ 2210 µM) | 35.2 ± 1.5 | 21.0 ± 1.7 mm | 234 ± 20.7 (≈ 515 µM) | − | 125 (≈ 276 µM) | 441 | 29.6 | 44.1 | 67 | 71.8 | 21 to 28 |  |
